Results from paper PMC6647725 (Analytical and Bioanalytical Chemistry, 2019).

What was measured:
[1] = Stability in tissue homogenates; format: in vitro ADME, mouse; conditions: room temperature and ice/water bath
Procedure: (§1) The stability of each analyte was investigated in all the previously mentioned matrices. For plasma (both human and mouse), the stability was determined in triplicate at two concentration levels, QC L and QC H, whereas for mouse tissue homogenates only at QC M (except the brain in one stability condition). For all matrices, the following stability conditions were assessed: short term at room temperature (RT), long term at − 20 °C, and after 3 freeze-thaw (F/T) cycles at − 20 °C/RT. Furthermore, for tissue homogenates, the short-term stability in ice-water, long-term stability at − 70 °C, and F/T stability at − 70 °C/ice-water were also evaluated. Additionally, the stability in the final extract was tested. For this, the QC L and QC H final extracts from the plasma, brain, and spleen and the QC M final extract from the liver, kidney and small intestine were stored at 4–8 °C up to 3 days. Lastly, the stability of the stock solutions at − 20 °C was investigated.

[2] = Plasma pharmacokinetics in mice after oral administration; format: in vivo, mouse (FVB); conditions: FVB, po; mouse plasma, 10 mg/kg orally administered, t = 2 h; read-out: plasma concentration of representative sample
Procedure: This method was developed to support pharmacokinetic and tissue distribution studies of the CDK4/6 inhibitors in mice (FVB background). These studies were done separately for each drug. Animal housing and studies were conducted according to institutional guidelines complying with Dutch and European Union legislation (approval number from The Dutch Central Animal Testing Committee: AVD301002016595). […] Approximately 50 μL of blood was collected from the tip of the tail at several time points, except at the last one, when 500–1000 μL of blood was collected by cardiac puncture under isoflurane anesthesia. […] Mice were sacrificed by cervical dislocation and the organs were collected and weighed. Plasma was obtained using sodium heparin as anticoagulant after centrifugation at 9000g, 4 °C, for 6 min. When necessary, 10 μL of mouse plasma was diluted with 40 μL of human plasma. The tissue homogenates were prepared according to the procedure described in the “Tissue homogenate preparation” section. Plasma and tissue homogenate samples were stored at − 20 and − 70 °C, respectively, until the LC-MS/MS analysis was performed.

CDK4 = conditions: cited from earlier work
[3] = Stability of stock solutions at − 20 °C; format: physicochemical; conditions: 1 mg/mL stock solution, storage at − 20 °C
Procedure: as §1

CDK6 = conditions: cited from earlier work

- concentration at 2 h [2]: 311 ng/mL
Compound: CC(=O)c1c(C)c2cnc(Nc3ccc(N4CCNCC4)cn3)nc2n(C2CCCC2)c1=O [Palbociclib]
- IC50 (CDK6): 15 nM
